Measurements published in US8815811B2, “Peptides and methods for their preparation and use” (Eli Lilly and Company, priority 2010, dated 2014).
Where no end group is shown, it is not given here. [ ]: non-standard residue; d: D form. 1Nal = N[C@@H](Cc1cccc2ccccc12)C(=O)O; Aib = CC(C)(N)C(=O)O

Experiments:
[1] = molecular target: T1, hGlucR (Homo sapiens, UniProt P47871); assay: Glucagon receptor (hGlucR) binding assay (SPA, I-125 glucagon); conditions: hGlucR 293HEK membranes
T1 construct: expressed in transfected cells; host or cells: 293HEK, Hygromycin-selected, phD expression plasmid
T1 sequence (P47871 26-477): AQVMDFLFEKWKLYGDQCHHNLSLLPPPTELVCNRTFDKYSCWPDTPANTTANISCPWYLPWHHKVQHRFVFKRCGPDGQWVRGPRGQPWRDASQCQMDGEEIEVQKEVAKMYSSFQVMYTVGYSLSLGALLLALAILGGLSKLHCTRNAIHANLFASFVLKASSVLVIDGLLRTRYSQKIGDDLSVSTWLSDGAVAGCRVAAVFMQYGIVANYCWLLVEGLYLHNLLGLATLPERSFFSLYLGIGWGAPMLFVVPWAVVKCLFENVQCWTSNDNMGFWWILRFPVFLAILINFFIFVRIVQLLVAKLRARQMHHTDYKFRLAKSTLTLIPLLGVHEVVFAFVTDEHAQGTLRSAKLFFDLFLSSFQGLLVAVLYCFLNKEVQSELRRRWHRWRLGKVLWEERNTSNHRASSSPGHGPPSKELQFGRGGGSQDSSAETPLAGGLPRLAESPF
Procedure: The hGlucR cDNA is subcloned into the expression plasmid phD (Trans-activated expression of fully gamma-carboxylated recombinant human protein C, an antithrombotic factor. Grinnell, B. W., et. al., Bio/Technology 5: 1189-1192 (1987)). This plasmid DNA is transfected into 293HEK cells and selected with 200 μg/mL Hygromycin.
Crude plasma membranes are prepared using cells from suspension culture. The cells are lysed on ice in hypotonic buffer containing 25 mM Tris HCl, pH 7.5, 1 mM MgCl2, DNAse1, 20 μ/mL, and Roche Complete™ Inhibitors without EDTA. The cell suspension is homogenized with a glass dounce homogenizer using a Teflon® pestle for 25 strokes. The homogenate is centrifuged at 4° C. at 1800×g for 15 minutes. The supernatant is collected and the pellet is resuspended in hypotonic buffer and rehomogenized. The mixture is centrifuged at 1800×g for 15 minutes. The second supernatant is combined with the first supernatant. […]
The binding buffer contains 25 mM 4-(2-hydroxyethyl)-1-piperazineethanesulfonic acid (HEPES), pH 7.4, 2.5 mM CaCl2, 1 mM MgCl2, 0.1% fatty acid free BSA, 0.003% Tween20, and Roche Complete™ Inhibitors without EDTA. […] Plates are read with a PerkinElmer Life and Analytical Sciences Trilux MicroBeta® scintillation counter after 12 hours of settling time at room temperature.
Results are calculated as a percent of specific I-125-glucagon binding in the presence of compound. […]

[2] = tested on: diet-induced obese (DIO) mice; assay: Effects on food intake, body weight and body composition in DIO mice; type: in vivo; conditions: for Fat mass loss (g fat weight change for 14 days) / Total food intake (g total for 14 days) / Overall weight loss (g weight change for 14 days): DIO mice
Procedure: Effects on Food Intake, Body Weight and Body Composition in Diet-Induced Obese (DIO) Mice
Three to four months old male diet-induced obese (DIO) mice are used. Animals are individually housed in a temperature-controlled (24° C.) facility with a 12 hour light/dark cycle (lights on 22:00), and have free access to food and water. After 2 weeks acclimation to the facility, mice are randomized to treatment groups (n=8-10/group) so that each group has similar mean body weight and fat mass. Before the experiment, mice are subcutaneously (sc) injected with vehicle solution and weighed for 7 days to acclimate them to the procedures.
Vehicle or peptide analog (dose range 10-100 nmol/Kg) dissolved in vehicle is administered by sc injection to ad libitum fed DIO mice 30-90 minutes prior to the onset of the dark cycle […] for 2 to 4 weeks. Body weight and the weight of food plus the hopper are measured at the same time. Food consumed in the last 24 hours is calculated by subtracting current weight of food plus the hopper from that of the previous day. Absolute changes in body weight are calculated by subtracting the body weight of the animal prior to the first injection. On days −1 and 14, total fat mass is measured by nuclear magnetic resonance (NMR) using an Echo Medical System (Houston, Tex.) instrument. Fat free mass is calculated by subtracting fat mass from total body weight.

[3] = tested on: DIO mice; assay: Oral glucose tolerance test after 2-week treatment in DIO mice; type: in vivo
Procedure: Fifty-six hours after the last injection of compound in the DIO study above the animals were subjected to an oral glucose tolerance test. In short, mice were fasted for 16 hours prior to the start of the glucose tolerance test. At time 0, animals are given 2 g/kg dextrose by oral gavage. Blood is collected by tail bleeding taken 0, 15, 30, 60 and 120 minutes after glucose challenge. Glucose concentration is measured by glucometer.

[4] = tested on: Normal male Wistar rats; assay: Intravenous glucose tolerance test in normal rats; type: in vivo; conditions: IVGTT; for insulin AUC: 0 to 30 min
Procedure: Effects on Blood Glucose Excursion During an Intravenous Glucose Tolerance Test in Normal Rats
Normal male Wistar rats (225-250 g) are used in the study. Animals are randomized into groups based on fed body weight and blood glucose. Animals are injected with vehicle or peptide analog (dose 3-400 μg peptide content/kg) 16 hours prior to the start of the test. Food is removed at the time of injection. Prior to the assay the animals are put under anesthesia, Phenobarbital 65 mg/kg i.p., and two catheters are inserted, one in the jugular vein and the other in the carotid artery. At time 0, animals are given 0.5 g glucose/kg through the venous catheter. Blood is collected from the carotid artery at time 0 (pre glucose), 2, 4, 6, 10, 20 and 30 minutes after glucose challenge. Glucose concentration is measured by glucometer. Insulin is measured by Mesoscale®. Efficacy is measured as the increase in total area under the insulin curve (=integrated plasma insulin values from t+0 to 30 min) as well as the area under the glucose curve which is a measure of the glucose excursion following the intravenous glucose challenge.

[5] = tested on: ovariectomized (OvX) Sprague Dawley rats; assay: Skeletal effects in ovariectomized (OvX) Sprague Dawley rats; type: in vivo
Procedure: Example 4 was evaluated in 6 months old, ovariectomized (OvX; see Endocrinology 144: 2008-2015), Sprague Dawley rats. Doses of 0, 2.9, 9.7, or 29 nmol/kg were given to the rats as daily subcutaneous injections starting 9 days post surgery. […] It should be noted that loss in body weight (8% in this study) can directly affect bone mass. Bone strength is load dependent and losing weight results in a lower load on bones that carry weight and as a consequence less impact is observed on skeletal parameters of bones that carry weight, i.e. the femur cortical bone. Statistical significances were evaluated by a one-way ANOVA followed by a Dunnett's test.

[6] = OvX rats, 2.9 nmol/kg daily sc, 35 days
[7] = OvX rats, 9.7 nmol/kg daily sc, 35 days
[8] = OvX rats, 29 nmol/kg daily sc, 35 days

## Aib^2, Aib^13, Nal^22, Aib^29, Cys^43(PEG20K), Cys^44 (PEG20K)-GIP (Y[Aib]EGTFTSDYSI[Aib]LDKIAQRA[1Nal]VQWLIA[Aib]KGKKQEWKHQITQC(PEG 20 kDa)C(PEG 20 kDa)-NH2) [Example 4]
[1]
  Ki: > 7.49 µM
[2]; 14-day DIO mouse studies, summary of Tables 6a and 6b
  cumulative food intake and body weight compared to vehicle-treated mice: decreased
[2]; Table 6a, 10 nmol/Kg
  Fat mass loss (g fat weight change for 14 days): -3.6 ± 1.1 g
  Total food intake (g total for 14 days): 28.4 ± 1.8 g
[2]; Table 6a, 10 nmol/Kg sc every 3 days
  Overall weight loss (g weight change for 14 days): -4.5 ± 0.3 g
[2]; Table 6a, 30 nmol/Kg
  Fat mass loss (g fat weight change for 14 days): -4.7 ± 0.4 g
  Total food intake (g total for 14 days): 25.5 ± 2.6 g
[2]; Table 6a, 30 nmol/Kg sc every 3 days
  Overall weight loss (g weight change for 14 days): -6.0 ± 0.4 g
[2]; Table 6b, 10 nmol/Kg
  Fat mass loss (g fat weight change for 14 days): -3.6 ± 0.3 g
  Overall weight loss (g weight change for 14 days): -4.9 ± 0.4 g
  Total food intake (g total for 14 days): 26.9 ± 1.5 g
[3]; DIO mice, summary of Tables 7a and 7b
  glucose excursion following an oral glucose load: significantly reduced
[3]; Table 7a, OGTT 2 g/kg dextrose, 56 h after last injection, 10 nmol/Kg
  Glucose AUC, MEAN: 11725 mg·min/dL
[3]; Table 7a, OGTT, 30 nmol/Kg
  Glucose AUC, MEAN: 10907 mg·min/dL
[3]; Table 7b, OGTT, 10 nmol/Kg
  Glucose AUC, MEAN: 13719 mg·min/dL
[4]
  insulin AUC and glucose AUC compared to vehicle-treated rats: increased insulin AUC and decreased glucose AUC
[4]; 50 μg/Kg
  glucose AUC: 7730 mg·min/dL
[4]; 50 μg/Kg 16 hours before test
  insulin AUC: 150 ng·min/mL
[4]; 200 μg/Kg
  glucose AUC: 7420 mg·min/dL
[4]; 200 μg/Kg 16 hours before test
  insulin AUC: 161 ng·min/mL
[5]; [6]
  Bone mineral density (BMD) of lumbar vertebrae, MEAN: 557 mg/mL
  Changes in bone mineral content (BMC) of lumbar vertebrae, Bone mineral density (mg), MEAN: 9.75 mg
[5]; [7]
  Bone mineral density (BMD) of lumbar vertebrae, MEAN: 558 mg/mL
  Changes in bone mineral content (BMC) of lumbar vertebrae, Bone mineral density (mg), MEAN: 9.98 mg
[5]; [8]
  Bone mineral density (BMD) of lumbar vertebrae, MEAN: 588 mg/mL
  Changes in bone mineral content (BMC) of lumbar vertebrae, Bone mineral density (mg), MEAN: 10.49 mg
[5]; OvX rats, 2.9-29 nmol/kg daily, 35 days, dose responsive
  reduction of food consumption and body weight: up to 8%
[5]; OvX rats, 35 days
  OvX induced loss in bone mineral content and bone mineral density in lumbar vertebrae: dose-dependently prevented
  adverse effect on bone mineral density or bone mineral content in the femur and lumbar vertebra: did not adversely affect
  effect in mid femur cortical bone (BMC, BMD): no effect
  fat mass: decreased fat mass
  lean mass: no change
  non-fasted serum glucose and triglycerides: decreased
[5]; summary of Tables 8 and 9
  BMC and BMD in OvX rats: improves
